Test results published in patent US9529005B2, “Modulating bacterial MAM polypeptides in pathogenic disease” (priority 2011, dated 2016).
Converted amounts (≈) assume the structure as drawn. Read-outs that look alike come from different tables or passages of the source.

Legend:
Experiment in all cases: Antimicrobial susceptibility testing (MIC), BD Phoenix Automated Microbiology System; for interpretation of the result: key: R, resistant; I, intermediate; S, susceptible; R*: *As a rule, when ESBL is detected, an interpretation of susceptible or intermediate for penicillins, cephalosporins and aztreonam is reported as resistant
Assay type in all cases: cell-based
[1] = tested on: Escherichia coli; details: for MIC: Escherichia coli; for interpretation of the result: key: R, resistant; I, intermediate; S, susceptible; R*: *As a rule, when ESBL is detected, an interpretation of susceptible or intermediate for penicillins, cephalosporins and aztreonam is reported as resistant
Source text: (§1) The inventors performed antimicrobial susceptibility testing (AST) by determining the minimal inhibiting concentration (MIC) of a panel of antimicrobials on all twenty bacterial isolates using the BD Phoenix Automated Microbiology System (Table 3). Antimicrobial panels included several drugs from each of the four most commonly used classes of antimicrobials, aminoglycosides, β-lactams, carbapenems and fluoroquinolones. The panels also included antimicrobials from other classes, such as trimethoprim/sulfamethoxazole, but resistance to these was not considered in the classification of isolates as multidrug-resistant.

[2] = tested on: Klebsiella ssp.; details: for MIC: Klebsiella; for interpretation of the result: key: R, resistant; I, intermediate; S, susceptible; R*: *As a rule, when ESBL is detected, an interpretation of susceptible or intermediate for penicillins, cephalosporins and aztreonam is reported as resistant
Source text: as §1

[3] = tested on: Pseudomonas aeruginosa; details: for MIC: Pseudomonas aeruginosa; for interpretation of the result: key: R, resistant; I, intermediate; S, susceptible; R*: *As a rule, when ESBL is detected, an interpretation of susceptible or intermediate for penicillins, cephalosporins and aztreonam is reported as resistant
Source text: as §1

[4] = read-out: minimal inhibiting concentration, Escherichia coli isolate 1
[5] = read-out: minimal inhibiting concentration, Escherichia coli isolate 2
[6] = read-out: minimal inhibiting concentration, Escherichia coli isolate 3
[7] = read-out: minimal inhibiting concentration, Escherichia coli isolate 4
[8] = read-out: minimal inhibiting concentration, Escherichia coli isolate 5
[9] = read-out: minimal inhibiting concentration, Klebsiella ssp. isolate 2
[10] = read-out: minimal inhibiting concentration, Klebsiella ssp. isolate 3
[11] = read-out: minimal inhibiting concentration, Klebsiella ssp. isolate 4
[12] = Pseudomonas aeruginosa isolate 1
[13] = Pseudomonas aeruginosa isolate 2
[14] = Pseudomonas aeruginosa isolate 3
[15] = Pseudomonas aeruginosa isolate 4
[16] = Pseudomonas aeruginosa isolate 5
[17] = read-out: minimal inhibiting concentration, Pseudomonas aeruginosa isolate 1
[18] = read-out: minimal inhibiting concentration, Pseudomonas aeruginosa isolate 2
[19] = read-out: minimal inhibiting concentration, Pseudomonas aeruginosa isolate 3
[20] = read-out: minimal inhibiting concentration, Pseudomonas aeruginosa isolate 4
[21] = read-out: minimal inhibiting concentration, Pseudomonas aeruginosa isolate 5

Cc1nnc(SCC2=C(C(=O)O)N3C(=O)[C@@H](NC(=O)Cn4cnnn4)[C@H]3SC2)s1 [Cefa., Cefazolin]
interpretation of the result ([1]; Escherichia coli isolate 1): R
interpretation of the result ([1]; Escherichia coli isolate 2): R
interpretation of the result ([1]; Escherichia coli isolate 3): R
interpretation of the result ([1]; Escherichia coli isolate 4): R
interpretation of the result ([1]; Escherichia coli isolate 5): R
MIC [1, 4]: > 16 µg/mL
MIC [1, 5]: > 16 µg/mL
MIC [1, 6]: > 16 µg/mL
MIC [1, 7]: > 16 µg/mL
MIC [1, 8]: > 16 µg/mL
interpretation of the result ([2]; Klebsiella ssp. isolate 2): R
interpretation of the result ([2]; Klebsiella ssp. isolate 3): R
interpretation of the result ([2]; Klebsiella ssp. isolate 4): R
MIC [2, 9]: > 16 µg/mL
MIC [2, 10]: > 16 µg/mL
MIC [2, 11]: > 16 µg/mL
interpretation of the result [3, 12]: R
interpretation of the result [3, 13]: R
interpretation of the result [3, 14]: R
interpretation of the result [3, 15]: R
interpretation of the result [3, 16]: R
MIC [3, 17]: > 16 µg/mL
MIC [3, 18]: > 16 µg/mL
MIC [3, 19]: > 16 µg/mL
MIC [3, 20]: > 16 µg/mL
MIC [3, 21]: > 16 µg/mL

CO/N=C(\C(=O)N[C@@H]1C(=O)N2C(C(=O)O)=C(CSc3nc(=O)c(=O)[nH]n3C)CS[C@H]12)c1csc(N)n1 [Co., Ceftriaxone]
interpretation of the result ([1]; Escherichia coli isolate 1): R
interpretation of the result ([1]; Escherichia coli isolate 2): R
interpretation of the result ([1]; Escherichia coli isolate 3): R
interpretation of the result ([1]; Escherichia coli isolate 4): R
interpretation of the result ([1]; Escherichia coli isolate 5): R
MIC [1, 4]: > 32 µg/mL
MIC [1, 5]: > 32 µg/mL
MIC [1, 6]: > 32 µg/mL
MIC [1, 7]: > 32 µg/mL
MIC [1, 8]: > 32 µg/mL
interpretation of the result ([2]; Klebsiella ssp. isolate 2): R
interpretation of the result ([2]; Klebsiella ssp. isolate 3): R
interpretation of the result ([2]; Klebsiella ssp. isolate 4): R
MIC [2, 9]: > 32 µg/mL
MIC [2, 10]: 16 µg/mL (≈ 28.9 µM)
MIC [2, 11]: > 32 µg/mL
interpretation of the result [3, 12]: R
interpretation of the result [3, 13]: R
interpretation of the result [3, 14]: R
interpretation of the result [3, 15]: R
interpretation of the result [3, 16]: R
MIC [3, 17]: > 32 µg/mL
MIC [3, 18]: > 32 µg/mL
MIC [3, 19]: > 32 µg/mL
MIC [3, 20]: > 32 µg/mL
MIC [3, 21]: > 32 µg/mL

CO[C@@]1(NC(=O)Cc2cccs2)C(=O)N2C(C(=O)O)=C(COC(N)=O)CS[C@@H]21 [Cx., Cefoxitin]
interpretation of the result ([1]; Escherichia coli isolate 1): S
interpretation of the result ([1]; Escherichia coli isolate 2): S
interpretation of the result ([1]; Escherichia coli isolate 3): S
interpretation of the result ([1]; Escherichia coli isolate 4): R
interpretation of the result ([1]; Escherichia coli isolate 5): S
MIC [1, 4]: 8 µg/mL (≈ 18.7 µM)
MIC [1, 5]: ≤ 4 µg/mL
MIC [1, 6]: 8 µg/mL (≈ 18.7 µM)
MIC [1, 7]: > 16 µg/mL
MIC [1, 8]: 8 µg/mL (≈ 18.7 µM)
interpretation of the result ([2]; Klebsiella ssp. isolate 2): S
interpretation of the result ([2]; Klebsiella ssp. isolate 3): R
interpretation of the result ([2]; Klebsiella ssp. isolate 4): S
MIC [2, 9]: ≤ 4 µg/mL
MIC [2, 10]: > 16 µg/mL
MIC [2, 11]: 8 µg/mL (≈ 18.7 µM)
interpretation of the result [3, 12]: R
interpretation of the result [3, 13]: R
interpretation of the result [3, 14]: R
interpretation of the result [3, 15]: R
interpretation of the result [3, 16]: R
MIC [3, 17]: > 16 µg/mL
MIC [3, 18]: > 16 µg/mL
MIC [3, 19]: > 16 µg/mL
MIC [3, 20]: > 16 µg/mL
MIC [3, 21]: > 16 µg/mL
